Patent publication US20170050957A1, “4-AMINO-6-(HETEROCYCLIC)PICOLINATES AND 6-AMINO-2-(HETEROCYCLIC)PYRIMIDINE-4-CARBOXYLATES AND THEIR USE AS HERBICIDES” (Dow AgroSciences LLC, priority 2013, published 2017)
Like-named read-outs stand apart in the source and are kept apart here.

What was measured:
[1] = system: Key Grass and Sedge Weeds as well as Grass Crops; assay: Post-emergent Test II herbicidal activity (Table 16); type: in vivo; conditions: post-emergence, 336 h, 14 d; for pest or weed control at 35 g/ha: 35 g ai/ha; for pest or weed control at 70 g/ha: 70 g ai/ha; for pest or weed control at 140 g/ha: 140 g ai/ha
How it was run: (§1)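 Herbicidal effect scored as percent visual injury, 14 d after post-emergent application. Spray solutions contained acetone, DMSO, isopropyl alcohol, crop oil concentrate and surfactant, applied at 187 L/ha to young plants (1-2 true leaves).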

[2] = system: Key Broadleaf Weed and Crop Species; assay: Post-emergent Test II herbicidal activity (Table 15); type: in vivo; conditions: post-emergence, 336 h, 14 d; for pest or weed control at 35 g/ha: 35 g ai/ha; for pest or weed control at 70 g/ha: 70 g ai/ha; for pest or weed control at 140 g/ha: 140 g ai/ha
How it was run: as §1

[3] = Cyperus esculentus, yellow nutsedge (Cyperus esculentus), read-out: Visual Growth Reduction (%) 14 Days After Application, CYPES
[4] = Echinochloa crus-galli, barnyardgrass (Echinochloa crus-galli), read-out: Visual Growth Reduction (%) 14 Days After Application, ECHCG
[5] = Oryza sativa, rice (Oryza sativa), read-out: Visual Growth Reduction (%) 14 Days After Application, ORYSA
[6] = Setaria faberi, giant foxtail (Setaria faberi), read-out: Visual Growth Reduction (%) 14 Days After Application, SETFA
[7] = Triticum aestivum, wheat, spring (Triticum aestivum), read-out: Visual Growth Reduction (%) 14 Days After Application, TRZAS
[8] = Zea mays, maize, corn (Zea mays), read-out: Visual Growth Reduction (%) 14 Days After Application, ZEAMX
[9] = Abutilon theophrasti, velvetleaf (Abutilon theophrasti), read-out: Visual Growth Reduction (%) 14 Days After Application, ABUTH
[10] = Amaranthus retroflexus, redroot pigweed (Amaranthus retroflexus), read-out: Visual Growth Reduction (%) 14 Days After Application, AMARE
[11] = Brassica napus, oilseed rape, canola (Brassica napus), read-out: Visual Growth Reduction (%) 14 Days After Application, BRSNN
[12] = Chenopodium album, lambsquarters (Chenopodium album), read-out: Visual Growth Reduction (%) 14 Days After Application, CHEAL
[13] = Euphorbia heterophylla, wild poinsettia (Euphorbia heterophylla), read-out: Visual Growth Reduction (%) 14 Days After Application, EPHHL
[14] = Helianthus annuus, sunflower (Helianthus annuus), read-out: Visual Growth Reduction (%) 14 Days After Application, HELAN

| SMILES | pest or weed control at 35 g/ha [1, 3] [%] | pest or weed control at 70 g/ha [1, 3] [%] | pest or weed control at 140 g/ha [1, 3] [%] | pest or weed control at 35 g/ha [1, 4] [%] | pest or weed control at 70 g/ha [1, 4] [%] | pest or weed control at 140 g/ha [1, 4] [%] | pest or weed control at 35 g/ha [1, 5] [%] | pest or weed control at 70 g/ha [1, 5] [%] | pest or weed control at 140 g/ha [1, 5] [%] | pest or weed control at 35 g/ha [1, 6] [%] | pest or weed control at 70 g/ha [1, 6] [%] | pest or weed control at 140 g/ha [1, 6] [%] | pest or weed control at 35 g/ha [1, 7] [%] | pest or weed control at 70 g/ha [1, 7] [%] | pest or weed control at 140 g/ha [1, 7] [%] | pest or weed control at 35 g/ha [1, 8] [%] | pest or weed control at 70 g/ha [1, 8] [%] | pest or weed control at 140 g/ha [1, 8] [%] | melting point [°C] | pest or weed control at 35 g/ha [2, 9] [%] | also measured |
| --- | --- | --- | --- | --- | --- | --- | --- | --- | --- | --- | --- | --- | --- | --- | --- | --- | --- | --- | --- | --- | --- |
| Nc1cc(-c2ccc3cc[nH]c3c2)nc(C(=O)O)c1Cl [Compound 1.22] | 0 to 29 | 0 to 29 | 0 to 29 | 0 to 29 | 0 to 29 | 0 to 29 | 0 to 29 | 0 to 29 | 0 to 29 | 0 to 29 | 60 to 74 | 85 to 94 | 0 to 29 | 0 to 29 | 0 to 29 | 0 to 29 | 0 to 29 | 0 to 29 | 172 to 174 | 0 to 29 | pest or weed control at 70 g/ha [2, 9]: 0 to 29%; pest or weed control at 140 g/ha [2, 9]: 0 to 29%; pest or weed control at 35 g/ha [2, 10]: 75 to 84%; pest or weed control at 70 g/ha [2, 10]: 75 to 84%; pest or weed control at 140 g/ha [2, 10]: 85 to 94%; pest or weed control at 35 g/ha [2, 11]: 45 to 59%; pest or weed control at 70 g/ha [2, 11]: 60 to 74%; pest or weed control at 140 g/ha [2, 11]: 60 to 74%; pest or weed control at 35 g/ha [2, 12]: 0 to 29%; pest or weed control at 70 g/ha [2, 12]: 0 to 29%; pest or weed control at 140 g/ha [2, 12]: 0 to 29%; pest or weed control at 35 g/ha [2, 13]: 45 to 59%; pest or weed control at 70 g/ha [2, 13]: 75 to 84%; pest or weed control at 140 g/ha [2, 13]: 85 to 94%; pest or weed control at 35 g/ha [2, 14]: 75 to 84%; pest or weed control at 70 g/ha [2, 14]: 85 to 94%; pest or weed control at 140 g/ha [2, 14]: 85 to 94% |
| COC(=O)c1nc(-c2ccc3cc[nH]c3c2)nc(N)c1OC [Compound 1.32] | 0 to 29 | 0 to 29 | 0 to 29 | 0 to 29 | 0 to 29 | 0 to 29 | 0 to 29 | 0 to 29 | 0 to 29 | 0 to 29 | 0 to 29 | 0 to 29 | 0 to 29 | 0 to 29 | 0 to 29 | 0 to 29 | 0 to 29 | 0 to 29 | 190 to 191 | 0 to 29 | pest or weed control at 70 g/ha [2, 9]: 0 to 29%; pest or weed control at 140 g/ha [2, 9]: 0 to 29%; pest or weed control at 35 g/ha [2, 10]: 0 to 29%; pest or weed control at 70 g/ha [2, 10]: 30 to 44%; pest or weed control at 140 g/ha [2, 10]: 60 to 74%; pest or weed control at 35 g/ha [2, 11]: 30 to 44%; pest or weed control at 70 g/ha [2, 11]: 45 to 59%; pest or weed control at 140 g/ha [2, 11]: 60 to 74%; pest or weed control at 35 g/ha [2, 12]: 0 to 29%; pest or weed control at 70 g/ha [2, 12]: 0 to 29%; pest or weed control at 140 g/ha [2, 12]: 75 to 84%; pest or weed control at 35 g/ha [2, 13]: 0 to 29%; pest or weed control at 70 g/ha [2, 13]: 60 to 74%; pest or weed control at 140 g/ha [2, 13]: 85 to 94%; pest or weed control at 35 g/ha [2, 14]: 45 to 59%; pest or weed control at 70 g/ha [2, 14]: 60 to 74%; pest or weed control at 140 g/ha [2, 14]: 75 to 84% |
| Cc1c(-c2ccc3cc[nH]c3c2)nc(C(=O)O)c(Cl)c1N [Compound 1.29] | 0 to 29 | 0 to 29 | 30 to 44 | 0 to 29 | 0 to 29 | 0 to 29 | 0 to 29 | 0 to 29 | 0 to 29 | 0 to 29 | 0 to 29 | 0 to 29 | 0 to 29 | 0 to 29 | 0 to 29 | 0 to 29 | 0 to 29 | 0 to 29 | 168 to 175 | 0 to 29 | pest or weed control at 70 g/ha [2, 9]: 0 to 29%; pest or weed control at 140 g/ha [2, 9]: 0 to 29%; pest or weed control at 35 g/ha [2, 10]: 45 to 59%; pest or weed control at 70 g/ha [2, 10]: 0 to 29%; pest or weed control at 140 g/ha [2, 10]: 0 to 29%; pest or weed control at 35 g/ha [2, 11]: 75 to 84%; pest or weed control at 70 g/ha [2, 11]: 75 to 84%; pest or weed control at 140 g/ha [2, 11]: 85 to 94%; pest or weed control at 35 g/ha [2, 12]: 45 to 59%; pest or weed control at 70 g/ha [2, 12]: 45 to 59%; pest or weed control at 140 g/ha [2, 12]: 75 to 84%; pest or weed control at 35 g/ha [2, 13]: 0 to 29%; pest or weed control at 70 g/ha [2, 13]: 0 to 29%; pest or weed control at 140 g/ha [2, 13]: 0 to 29%; pest or weed control at 35 g/ha [2, 14]: 60 to 74%; pest or weed control at 70 g/ha [2, 14]: 60 to 74%; pest or weed control at 140 g/ha [2, 14]: 75 to 84% |
